In patent US9555038B2, “Heterocycle-substituted tetracyclic compounds and methods of use thereof for the treatment of viral diseases” (Merck Sharp & Dohme Corp., priority 2013, dated 2017) one finds IC50 data, which are given here for 16 molecules.

The test system of assay [1] is HCV replicon 1A. Description: Cell-based HCV Replicon Assay A, replicon 1A. The method in brief: (§1)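 Replicon cells seeded at 2000 cells/well with compound, 10 serial dilutions starting at 333.3 nM to 1.667 nM, 0.5% DMSO, 5% FBS, harvested on day 3. Replicon RNA measured by multiplex TaqMan RT-PCR with cyclophilin as endogenous control, quantified from standard curves of Ct vs log ng RNA.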
In general terms: A replicon is a self-replicating genome or part of one, used to study replication in cells.

For assay [2], the system named is HCV replicon 1AQ30D. Description: Cell-based HCV Replicon Assay B, replicon 1AQ30D. The note with it: for IC50: Hepatitis C virus, read-out: 1A Q30D IC50 (nM), replicon 1AQ30D. Here is the method: In an alternate assay (“Replicon Assay B”), 1000 cells were seeded per well in a 384-well collagen coated black plate from Greiner bio-one (Cat #781946) in 5% FBS. Inhibitors of this invention were added at 24 h post-seeding, and the plates were incubated for 3 days. Cells were subsequently lysed with Qiagen lysis buffer (Cat #1062731) to extract the RNA. HCV replicon RNA level was measured by real-time PCR using the RNA-to-CT kit from Applied Biosystem (Cat #4392656) and genotype-specific primers and probes. The amplicon was located within NS5B. The sequence of the PCR primers are as follows: 5B.2F, ATGGACAGGCGCCCTGA (SEQ. ID NO. 1); 5B.2R, […] (SEQ. ID NO. 2); the probe sequence was FAM-labeled CACGCCATGCGCTGCGG (SEQ. ID NO. 3). To detect genotype 1A the primer 1A F, TGCGGAACCGGTGAGTACA and 1A R, […] were used; the probe sequence was FAM-[…].
The real-time RT-PCR reactions were run on ABI PRISM 7900HT or Viia7 Sequence Detection System using the following program: 48° C. for 30 minutes, 95° C. for 10 minutes, 40 cycles of 95° C. for 15 sec, 60° C. for 1 minutes. The 50% effective concentration (EC50) was the drug concentration necessary to achieve an increase in the cycle threshold (CT) of 1 over the projected baseline CT.
Data was obtained for various compounds of the present invention using the methods described in the Example above, and is presented in the table immediately below. Data for replicons 1A, 1AY93H and 2B were obtained using Replicon Assay A and data for replicons 1AQ30D and 1B were obtained using Replicon Assay B.

In assay [3] the test system is HCV replicon 1B. Description: Cell-based HCV Replicon Assay B, replicon 1B. The method in brief:
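Replicon cells seeded in 5% FBS; compounds added 24 h later, then 3 days' incubation. Replicon RNA quantified by real-time RT-PCR with genotype-specific primers/probes (NS5B amplicon for 1b). EC50 = concentration raising CT by 1 over projected baseline.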

Assay [4] concerns HCV replicon 2B. The assay is described as follows: Cell-based HCV Replicon Assay A, replicon 2B. The note with it: for IC50: Hepatitis C virus, read-out: 2B IC50 (nM), replicon 2B. In outline: as §1
Assay [5] has as its system HCV replicon 1AY93H. The assay is described as follows: Cell-based HCV Replicon Assay A, replicon 1AY93H. The note with it: for IC50: Hepatitis C virus, read-out: 1A Y93H IC50 (nM), replicon 1AY93H. The method in brief:
as §1

Where [6] appears, read: read-out: 1A Q30D IC50, replicon 1AQ30D.
Where [7] appears, read: read-out: 1A Y93H IC50, replicon 1AY93H.
The mark [8] stands for this setting: replicon 1AQ30D, read-out: 1A Q30D IC50.
The mark [9] stands for this setting: replicon 1AY93H, read-out: 1A Y93H IC50.

pIC50: −log10 of the molar value. Read-outs that look alike come from different tables or passages of the source.

In the case of `COC(=O)NC(C(=O)N1CCC[C@H]1c1ncc(-c2ccc3c(c2)cc2n3C(c3cnc(C4(C)CC4)s3)Oc3cc(-c4cnc([C@@H]5CCCN5C(=O)[C@@H](NC(=O)OC)C(C)C)[nH]4)cc(F)c3-2)[nH]1)C1CCOC(C)(C)C1` (single isomer, unassigned) [Compound 458], the pIC50 (usually the negative decadic logarithm of the IC50, by convention in mol/L) was 11.52 in assay [1]; 10.62 in assay [2] (setting [6]); 11.46 in assay [3]; 11.15 in assay [4] (read-out: 2B IC50, replicon 2B); 11.15 in assay [5] (setting [7]).

As to `COC(=O)NC(C(=O)N1CCCC1c1ncc(-c2cc(F)c3c(c2)OC(c2cnc(C4CCCC4)s2)n2c-3cc3cc(-c4cnc(C5CC6CC6N5C(=O)C(NC(=O)OC)C(C)C)[nH]4)ccc32)[nH]1)C(C)C` (single isomer, unassigned) [Compound 320], the pIC50 in assay [1] is 11.77; in assay [2] (setting [8]), 9.23; in assay [3], 11.52; in assay [4] (replicon 2B, read-out: 2B IC50), 9.69; in assay [5] (setting [9]), 10.44.

On to `CCCc1ncc(C2Oc3cc(-c4cnc([C@@H]5CCCN5C(=O)[C@@H](NC(=O)OC)C(C)C)[nH]4)cc(F)c3-c3cc4cc(-c5cnc([C@@H]6C[C@H]7C[C@H]7N6C(=O)C(NC(=O)OC)C6CCOC(C)(C)C6)[nH]5)ccc4n32)s1` (single isomer, unassigned) [Compound 107], for which the pIC50 in assay [1] was 11.59; in assay [2] (setting [6]) it was 9.63; in assay [3], 11.40; in assay [4] (read-out: 2B IC50, replicon 2B), 10.77; in assay [5] (setting [7]) it was 10.53.

On to `COC(=O)NC(C(=O)N1CCC[C@H]1c1ncc(-c2ccc3c(c2)cc2n3C(c3ncc(C4CC4)s3)Oc3cc(-c4cnc([C@@H]5CCCN5C(=O)[C@@H](NC(=O)OC)C(C)C)[nH]4)cc(F)c3-2)[nH]1)C1C[C@@H](C)O[C@@H](C)C1` (single isomer, unassigned) [Compound 51], for which the negative-log IC50 (pIC50) in assay [1] (Hepatitis C virus) is 11.66; in assay [3] (Hepatitis C virus), 11.52. Moreover, the IC50 (commonly the concentration that inhibits the measured activity by half) in assay [2] was 0.152 nM; in assay [4], 0.025 nM; in assay [5], 0.0223 nM.

For the molecule `COC(=O)N[C@H](C(=O)N1CCC[C@H]1c1ncc(-c2cc(F)c3c(c2)OC(c2cnc(C4CC4)s2)n2c-3cc3cc(-c4cnc([C@@H]5C[C@H]6C[C@H]6N5C(=O)[C@@H](NC(=O)OC)C(C)C)[nH]4)ccc32)[nH]1)C(C)C` (single isomer, unassigned) [Compound 301], the negative logarithm of the IC50 (pIC50) in assay [1] was 11.85; in assay [2] (setting [6]), 8.67; in assay [3] it was 11.40; in assay [4] (read-out: 2B IC50, replicon 2B), 9.47; in assay [5] (setting [7]) it was 9.66.

Take `COC(=O)N[C@H](C(=O)N1CCC[C@H]1c1ncc(-c2cc(C)c3c(c2)OC(c2cnc(C4CC4)s2)n2c-3cc3cc(-c4cnc([C@@H]5C[C@H]6C[C@H]6N5C(=O)[C@@H](NC(=O)OC)C(C)C)[nH]4)ccc32)[nH]1)C(C)C` (single isomer, unassigned) [Compound 203]: the figures for the negative-log IC50 (pIC50) in assay [1] (Hepatitis C virus) and in assay [3] (Hepatitis C virus) were 11.35 and 11.52, respectively. Moreover, the half-maximal inhibitory concentration (IC50) in assay [2] was 0.654 nM; in assay [4], 0.007 nM; in assay [5], 0.0166 nM.

For the molecule `COC(=O)NC(C(=O)N1[C@@H]2C[C@@H]2C[C@H]1c1ncc(-c2ccc3c(c2)cc2n3C(c3cnc(CC(C)C)s3)Oc3cc(-c4cnc([C@@H]5CCCN5C(=O)[C@@H](NC(=O)OC)C(C)C)[nH]4)cc(F)c3-2)[nH]1)C1CCOC(C)(C)C1` (single isomer, unassigned) [Compound 437], the pIC50 is 11.66 in assay [1]; 9.55 in assay [2] (setting [8]); 11.51 in assay [3]; 9.68 in assay [4] (replicon 2B, read-out: 2B IC50); 9.75 in assay [5] (setting [9]).

For `COC(=O)NC(C(=O)N1CCC[C@H]1c1ncc(-c2ccc3c(c2)cc2n3C(c3cnc(C4CCOCC4)s3)Oc3cc(-c4cnc([C@@H]5CCCN5C(=O)[C@@H](NC(=O)OC)C(C)C)[nH]4)cc(F)c3-2)[nH]1)C1CCOC(C)(C)C1` (single isomer, unassigned) [Compound 448], the pIC50 is 11.33 in assay [1] (Hepatitis C virus); 9.95 in assay [2] (setting [6]); 11.22 in assay [3] (Hepatitis C virus); 10.96 in assay [4] (read-out: 2B IC50, replicon 2B); 10.89 in assay [5] (setting [7]).

On to `COC(=O)N[C@H](C(=O)N1CCC[C@H]1c1ncc(-c2cc(F)c3c(c2)OC(c2cnc(C(C)(C)C)s2)n2c-3cc3cc(-c4cnc([C@@H]5CCCN5C(=O)[C@@H](NC(=O)OC)C(C)C)[nH]4)ccc32)[nH]1)C(C)C` (single isomer, unassigned) [Compound 302], for which the negative-log IC50 (pIC50) in assay [1] (Hepatitis C virus) is 11.54; in assay [3], 12.00; in assay [4] (read-out: 2B IC50, replicon 2B), 10.11; in assay [5] (setting [7]), 11.15. Further, in assay [2], the 50% inhibitory concentration (IC50) worked out at 0.168 nM.

On to `COC(=O)NC(C(=O)N1CCC[C@H]1c1ncc(-c2ccc3c(c2)cc2n3C(c3cnc(C4(C)CCCC4)s3)Oc3cc(-c4cnc([C@@H]5CCCN5C(=O)[C@@H](NC(=O)OC)C(C)C)[nH]4)cc(F)c3-2)[nH]1)C1C[C@@H](C)O[C@@H](C)C1` (single isomer, unassigned) [Compound 469], for which the negative-log IC50 (pIC50) in assay [1] (Hepatitis C virus) was 11.52; in assay [3] (Hepatitis C virus), 11.47; in assay [4] (read-out: 2B IC50, replicon 2B), 11.30; in assay [5] (setting [7]), 11.70. For the same molecule, in assay [2], the half-inhibitory concentration (IC50) came to 0.019 nM.

Take `COC(=O)N[C@H](C(=O)N1CCC[C@H]1c1ncc(-c2cc(F)c3c(c2)OC(c2ncc(-c4ccc(F)cc4)s2)n2c-3cc3cc(-c4cnc([C@@H]5CCCN5C(=O)[C@@H](NC(=O)OC)C(C)C)[nH]4)ccc32)[nH]1)C(C)C` (single isomer, unassigned) [Compound 33]: the pIC50 in assay [1] (Hepatitis C virus) is 11.77; in assay [2] (setting [6]) it was 8.78; in assay [3] (Hepatitis C virus) it was 12.00; in assay [4] (read-out: 2B IC50, replicon 2B) it was 9.13; in assay [5] (setting [7]), 8.93.

Consider `COC(=O)NC(C(=O)N1[C@@H]2C[C@@H]2C[C@H]1c1ncc(-c2ccc3c(c2)cc2n3C(c3cnc(C4(C)CCCC4)s3)Oc3cc(-c4cnc([C@@H]5CCCN5C(=O)[C@@H](NC(=O)OC)C(C)C)[nH]4)cc(F)c3-2)[nH]1)C1CCOC(C)(C)C1` (single isomer, unassigned) [Compound 475], for which the negative-log IC50 (pIC50) in assay [1] is 11.62; in assay [3] (Hepatitis C virus), 11.41; in assay [4] (read-out: 2B IC50, replicon 2B) it was 11.10; in assay [5] (setting [7]), 12.00. Further, the half-inhibitory concentration (IC50) in assay [2] was 0.016 nM.

Take `CCc1ncc(C2Oc3cc(-c4cnc([C@@H]5CCCN5C(=O)[C@@H](NC(=O)OC)C(C)C)[nH]4)cc(F)c3-c3cc4cc(-c5cnc([C@@H]6C[C@H]7C[C@H]7N6C(=O)C(NC(=O)OC)C6CCOC(C)(C)C6)[nH]5)ccc4n32)s1` (single isomer, unassigned) [Compound 93]: the pIC50 in assay [1] is 11.44; in assay [2] (setting [6]), 9.20; in assay [3], 11.52; in assay [4] (read-out: 2B IC50, replicon 2B) it was 10.16; in assay [5] (setting [7]), 10.37.

Consider `COC(=O)N[C@H](C(=O)N1CCC[C@H]1c1ncc(-c2cc(F)c3c(c2)OC(c2cnc(Nc4ccc(F)cc4)s2)n2c-3cc3cc(-c4cnc([C@@H]5CCCN5C(=O)[C@@H](NC(=O)OC)C(C)C)[nH]4)ccc32)[nH]1)C(C)C` (single isomer, unassigned) [Compound 534], for which the pIC50 is 11.62 in assay [1] (Hepatitis C virus); 11.52 in assay [3] (Hepatitis C virus); 10.52 in assay [4] (read-out: 2B IC50, replicon 2B). The half-maximal inhibitory concentration (IC50) in assay [2] is 0.267 nM; in assay [5], 0.094 nM.

Turning to `COC(=O)NC(C(=O)N1CCC[C@H]1c1ncc(-c2ccc3c(c2)cc2n3C(c3cnc(CC(C)(C)C)s3)Oc3cc(-c4cnc([C@@H]5CCCN5C(=O)[C@@H](NC(=O)OC)C(C)C)[nH]4)cc(F)c3-2)[nH]1)C1CCOC(C)(C)C1` (some centres unmarked) [Compound 443], the pIC50 in assay [1] (Hepatitis C virus) and in assay [3] (Hepatitis C virus) was 11.51 throughout. For the same molecule, the IC50 in assay [2] worked out at 0.028 nM; in assay [4], 0.006 nM; in assay [5], 0.008 nM.

Consider `COC(=O)N[C@H](C(=O)N1CCC[C@H]1c1ncc(-c2cc(F)c3c(c2)OC(c2cnc(C4CCCCC4)s2)n2c-3cc3cc(-c4cnc([C@@H]5CCCN5C(=O)[C@@H](NC(=O)OC)C(C)C)[nH]4)ccc32)[nH]1)C(C)C` (some centres unmarked) [Compound 527], for which the pIC50 in assay [1] (Hepatitis C virus) was 11.62; in assay [3] (Hepatitis C virus) it was 11.54; in assay [4] (read-out: 2B IC50, replicon 2B), 10.85; in assay [5] (setting [7]), 11.30. Also, in assay [2], the IC50 stood at 0.065 nM.
